# Measurements: PubChem BioAssay (NCI)
#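 These data come from cells grown in 96-well plates and exposed to compound for 48 hours at five concentrations. The concentration for full growth arrest is given as TGI.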
# What was measured:
# Assay in all cases: NCI tumour cell line growth inhibition, 48 h
# [1] = system: SK-MEL-5 melanoma
# [2] = system: DMS 114 small cell lung
# [3] = system: OVCAR-4 ovarian
# [4] = system: COLO 205 colon
# [5] = system: IGROV1 ovarian
# [6] = system: SNB-19 CNS
# [7] = system: A549 NSCLC
# [8] = system: XF 498 CNS
# [9] = system: SF-268 CNS
# [10] = system: UO-31 renal
# [11] = system: A498 renal
# [12] = system: U251 CNS
# [13] = system: SK-MEL-2 melanoma
# [14] = system: UACC-257 melanoma
# [15] = system: NCI-H23 lung
# [16] = system: NCI-H460 lung
# [17] = system: SNB-78 CNS
# [18] = system: SF-539 CNS
# [19] = system: OVCAR-8 ovarian
# [20] = system: CAKI-1 renal
# [21] = system: MALME-3M melanoma
# [22] = system: EKVX NSCLC
# [23] = system: DLD-1 colon
# [24] = system: P388 leukemia
# [25] = system: M19-MEL melanoma
# [26] = system: DMS 273 small cell lung
# [27] = system: MOLT-4 leukemia
# [28] = system: HCT-15 colon
# [29] = system: KM12 colon
# [30] = system: NCI-H522 lung
# [31] = system: NCI/ADR-RES ovarian
# [32] = system: SW-620 colon
# [33] = system: SK-OV-3 ovarian
# [34] = system: RPMI-8226 leukemia
# [35] = system: HT29 colon
# [36] = system: OVCAR-3 ovarian
# [37] = system: HOP-62 NSCLC
# [38] = system: UACC-62 melanoma
# [39] = system: LOX IMVI melanoma
# [40] = system: HOP-92 NSCLC
# [41] = system: MCF7 breast
# [42] = system: K-562 leukemia
# [43] = system: HL-60(TB) leukemia
# [44] = system: HCC-2998 colon
# [45] = system: SK-MEL-28 melanoma
# [46] = system: KM20L2 colon
# [47] = system: SNB-75 CNS
# [48] = system: SN12C renal
# [49] = system: OVCAR-5 ovarian
# [50] = system: RXF 393 renal
# [51] = system: SF-295 CNS
# [52] = system: HCT-116 colon
# [53] = system: CCRF-CEM leukemia
# [54] = system: P388/ADR leukemia
# [55] = system: SN12K1 renal
# [56] = system: NCI-H226 lung
# [57] = system: HOP-18 NSCLC
structure (smiles),measurement,setting,value
CC[C@@]1(O)C[C@H](OC2CC(N(C)C)C(O)C(C)O2)c2c(cc3c(c2O)C(=O)c2c(O)ccc(O)c2C3=O)[C@H]1C(=O)OC (some centres not stated),TGI,[1],461 nM
same,TGI,[2],489 nM
same,TGI,[3],91.8 nM
same,TGI,[4],359 nM
same,TGI,[5],1350 nM
same,TGI,[6],2910 nM
same,TGI,[7],1360 nM
same,TGI,[8],463 nM
same,TGI,[9],680 nM
same,TGI,[10],1000 nM
same,TGI,[11],239 nM
same,TGI,[12],1230 nM
same,TGI,[13],354 nM
same,TGI,[14],317 nM
same,TGI,[15],599 nM
same,TGI,[16],120 nM
same,TGI,[17],1340 nM
same,TGI,[18],410 nM
same,TGI,[19],643 nM
same,TGI,[20],250 nM
same,TGI,[21],304 nM
same,TGI,[22],526 nM
same,TGI,[23],891 nM
same,TGI,[24],31.7 nM
same,TGI,[25],288 nM
same,TGI,[26],406 nM
same,TGI,[27],192 nM
same,TGI,[28],976 nM
same,TGI,[29],1000 nM
same,TGI,[30],501 nM
same,TGI,[31],619 nM
same,TGI,[32],662 nM
same,TGI,[33],2370 nM
same,TGI,[34],388 nM
same,TGI,[35],559 nM
same,TGI,[36],924 nM
same,TGI,[37],672 nM
same,TGI,[38],252 nM
same,TGI,[39],772 nM
same,TGI,[40],1350 nM
same,TGI,[41],996 nM
same,TGI,[42],472 nM
same,TGI,[43],218 nM
same,TGI,[44],579 nM
same,TGI,[45],462 nM
same,TGI,[46],969 nM
same,TGI,[47],354 nM
same,TGI,[48],1470 nM
same,TGI,[49],836 nM
same,TGI,[50],258 nM
same,TGI,[51],389 nM
same,TGI,[52],829 nM
same,TGI,[53],603 nM
same,TGI,[54],56.1 nM
same,TGI,[55],256 nM
same,TGI,[56],455 nM
same,TGI,[57],1300 nM
CC(=O)C(=O)NC1/C=C(C)\C=C/C(O)C/C=C(C)\C=C/C(O)CC2OC(=O)C1(C)C(=O)C2C (configuration not stated),TGI,[1],> 100000 nM
same,TGI,[2],> 100000 nM
same,TGI,[3],> 100000 nM
same,TGI,[4],> 100000 nM
same,TGI,[5],> 100000 nM
same,TGI,[6],> 100000 nM
same,TGI,[7],> 100000 nM
same,TGI,[9],> 100000 nM
same,TGI,[10],> 100000 nM
same,TGI,[11],> 100000 nM
same,TGI,[12],> 100000 nM
same,TGI,[13],> 100000 nM
same,TGI,[14],> 100000 nM
same,TGI,[15],> 100000 nM
same,TGI,[16],> 100000 nM
same,TGI,[17],> 100000 nM
same,TGI,[18],> 100000 nM
same,TGI,[19],> 100000 nM
same,TGI,[20],> 100000 nM
same,TGI,[21],> 100000 nM
same,TGI,[22],> 100000 nM
same,TGI,[23],> 100000 nM
same,TGI,[24],> 48200 nM
same,TGI,[25],> 100000 nM
same,TGI,[26],> 100000 nM
same,TGI,[27],> 100000 nM
same,TGI,[28],> 100000 nM
same,TGI,[29],> 100000 nM
same,TGI,[30],> 100000 nM
same,TGI,[31],> 100000 nM
same,TGI,[32],> 100000 nM
same,TGI,[33],> 100000 nM
same,TGI,[34],98900 nM
same,TGI,[35],> 100000 nM
same,TGI,[36],> 100000 nM
same,TGI,[37],> 100000 nM
same,TGI,[38],> 100000 nM
same,TGI,[39],> 100000 nM
same,TGI,[40],> 100000 nM
same,TGI,[41],> 100000 nM
same,TGI,[42],> 100000 nM
same,TGI,[44],> 100000 nM
same,TGI,[45],> 100000 nM
same,TGI,[46],> 100000 nM
same,TGI,[47],> 100000 nM
same,TGI,[48],> 100000 nM
same,TGI,[49],> 100000 nM
same,TGI,[50],> 100000 nM
same,TGI,[51],> 100000 nM
same,TGI,[52],> 100000 nM
same,TGI,[53],> 100000 nM
same,TGI,[54],> 66600 nM
same,TGI,[55],> 100000 nM
same,TGI,[56],> 100000 nM
same,TGI,[57],> 100000 nM
